According to patent US20250120932A1, “PHARMACEUTICAL COMPOSITION” (NEUROPRO THERAPEUTICS, INC., priority 2021, published 2025):
Values joined by “and” are separate entries in the source; they are usually repeats but may differ in a detail not shown here. Equal entries are not always repeated.

Assays:
[1] = Nasal solution solubility evaluation in solvent/co-solvent systems (HPLC-UV); type: physicochemical; settings: organic solvent or mixture, thermodynamic from solid; Caprylocaproyl Polyoxylglycerides (Labrasol ALF), Composition 8
Method: The solvents were chosen from a group consisting of Caprylocaproyl Polyoxylglycerides (Labrasol ALF), propylene glycol, PEG-400, vitamin E TPGS, ethanol, water, and any combination thereof.
50 g stock solutions of each solvent system were prepared. The active solutions 3.0 mL of each solvent was aliquoted to separate 8 mL clear glass vials. […] Every 30 minutes the solutions were inspected. […] This process was repeated until visible saturation of all solvent systems was obtained. Prior to analysis, the samples were centrifuged at 5,000 RPM for 3 minutes and filtered through a 0.45 μm nylon syringe filter to remove excess solids.
The dose calculations included in Table 42 are based on 75% of the concentration at saturation. This is to reduce the risk of precipitation/crystallization due to environmental fluctuations. Additionally, two dose volumes (0.2/0.5 mL) were selected in accordance with the standard range for nasal delivery. The total dose illustrated is based on the equivalent volume delivered to each nostril, 0.4-1.0 mL total per dose.

[2] = Prototype capsule (SEDDS) development: solubilization and dispersion test in water; type: physicochemical; settings: capsule compositions with long chain triglycerides and 0 to 4.68% w/w ethanol
Method: Prototype capsule formulations were developed at a less than 2-gram scale. […] The oil phase was then added to the formulations and stirred until the solution became clear. The solutions were cooled to room temperature while stirring and co-solvent was then added (if applicable).
To test if the composition created macro-dispersions or micro-dispersions, about 30 mg of formulation was added into 1.0 g of water and lightly swirled. The resultant dispersion was visually characterized. SEDDS (macroemulsions) are typically characterized as an opaque milky white uniform liquid, and SEDDS (microemulsions) are characterized by a clear, isotropic, transparent solution with opalescence. […] Compositions 4 and 6 were selected for future development work, and the intermediate stability of those compositions was evaluated as described below.

[3] = Pharmacokinetic profile after single intravenous or oral gavage dose in rats; settings: for C0: back predicted to time 0
Method: Animals were dosed via oral gavage or intravenous injection once on Day 1 at a volume of 5 mL/kg for Group 1 and 10 mL/kg for Group 2. The vehicle was 40% (v/v) Polyethylene Glycol 400 (PEG400), 20% (v/v) Propylene Glycol, 5% (v/v) Ethanol, and 35% (v/v) water for Group 1 and the vehicle was 0.5% (w/v) Carboxymethylcellulose (medium viscosity) in reverse osmosis water for Group 2.
Blood samples (approximately 0.5 mL) were collected from nonfasted toxicokinetic animals via a jugular vein on Day 1 of the dosing phase, as indicated in Table 18
Blood was collected into tubes containing potassium (K2) EDTA as the anticoagulant. Samples were maintained on wet ice and were centrifuged within 30 minutes of collection. Plasma was harvested and stored on dry ice until placed in a freezer, set to maintain −60 to −80° C., until shipped on dry ice to Origin Bioanalytical Laboratory, Inc. for analysis.
Pharmacokinetic parameters were derived using non-compartmental methods employing Phoenix WinNonlin® version 8.1 (Pharsight Corp; St. Louis, MO). The PK parameters defined previously in Table 10 were calculated by non-compartmental methods using composite plasma concentration-time data obtained from 3 rats/sex/time point/dose. The area under the concentration-time curve from zero time (pre-dose) to the last time point was calculated by a combination of linear and logarithmic trapezoidal methods. The linear trapezoidal method was employed for all incremental trapezoids arising from increasing concentrations and the logarithmic trapezoidal method was used for those arising from decreasing concentrations (linear up/log down method). Nominal blood sampling times were used in the analysis. […] Individual BQL results were set to zero for all calculations. No animals were excluded from the analysis.

in vitro = settings: human, Caco-2, pH 7.4, % Solution Recovery
Method: Caco-2 cells purchased from ATCC were seeded onto […] (PET) in 96-well Corning Insert plates at 1×10^5 cells/cm^2, and refreshed medium every 4˜5 days until to the 21st to 28th day for confluent cell monolayer formation.
The transport buffer in the study was HBSS with 10.0 mM HEPES at pH 7.40±0.05. Test compound was tested at 2.00 μM bi-directionally in duplicate. Digoxin was tested at 10.0 μM bi-directionally in duplicate, while nadolol and metoprolol were tested at 2.00 μM in A to B direction in duplicate. Final DMSO concentration was adjusted to less than 1%. The plate was incubated for 2 hours in CO2 incubator at 37±1° C., with 5% CO2 at saturated humidity without shaking. And all samples after mixed with acetonitrile containing internal standard were centrifuged at 3200×g for 10 min. For nadolol and metoprolol, 200 μL supernatant solution was diluted with 600 μL ultra-pure water for LC-MS/MS analysis. For digoxin and test compounds, 200 μL supernatant solution was diluted with 200 μL ultra-pure water for LC-MS/MS analysis. Concentrations of test and control compounds in starting solution, donor solution, and receiver solution were quantified by LC-MS/MS methodologies, using peak area ratio of analyte/internal standard. After transport assay, lucifer yellow rejection assay was applied to determine the Caco-2 cell monolayer integrity.
The apparent permeability coefficient Papp (cm/s) was calculated using the equation: […]
Where dCp/dt is the cumulative concentration of compound in the receiver chamber as a function of time (μM/s); Vr is the solution volume in the receiver chamber (0.075 mL on the apical side, 0.25 mL on the basolateral side); A is the surface area for the transport, i.e. 0.0804 cm^2 for the area of the monolayer; Co is the initial concentration in the donor chamber (μM). The efflux ratio was calculated using the equation: […]
Percent recovery was calculated using the equation: […]
Where Vd is the volume in the donor chambers (0.075 mL on the apical side, 0.25 mL on the basolateral side); Ca and Cr are the final concentrations of transport compound in donor and receiver chambers, respectively.

[4] = male, Hsd: Sprague Dawley, rat, plasma, iv, 10 mg/kg
[5] = rats, oral 30 mg/kg vs IV 10 mg/kg

## CCCCNc1cc(C(=O)N(Cc2ccccc2)Cc2ccccc2)cc(S(N)(=O)=O)c1Oc1ccccc1 [Bumetanide Dibenzylamide, N, N-dibenzyl 3-aminosulfonyl-5-butylamino-4-phenoxybenzamide]
[1]
  solubility at 8 h: ~66 mg/mL
[2]
  maximum solubility of Bumetanide Dibenzylamide: about 1.8 % w/w
[3]; male rats, IV bolus 10 mg/kg, 1 h, 10 mg/kg
  Plasma Bumetanide Dibenzylamide concentration: 1040 ng/mL
[3]; [4]
  AUC(0-inf): 3730 ng·h/mL
  Vd: 10.1 L/kg
  clearance: 44.7 mL/min/kg
[3]; male, Hsd: Sprague Dawley, rat, plasma, iv, 10 mg/kg, C0, rats, IV bolus 10 mg/kg
  C0: 2780 ng/mL
[3]; male, Hsd: Sprague Dawley, rat, plasma, iv, 10 mg/kg, Plasma Bumetanide Dibenzylamide concentration, male rats, IV bolus 10 mg/kg, 0.08 h
  concentration at 0.08 h: 2510 ng/mL
[3]; male, Hsd: Sprague Dawley, rat, plasma, po, 30 mg/kg, Plasma Bumetanide Dibenzylamide concentration, male rats, oral 30 mg/kg, 4 h
  concentration at 4 h: 4.56 ng/mL
[3]; male, Sprague Dawley, rat, plasma, iv, 10 mg/kg, Plasma Bumetanide Dibenzylamide concentration, male rats, IV bolus 10 mg/kg, 1 h
  concentration at 1 h: 993 ng/mL
[3]; rats, IV bolus 10 mg/kg, 10 mg/kg
  C0: 2720 ng/mL
[3]; [5]
  Fabs (%): 0.34% and 0.32%
  Fabs (ratio): 0.0034 and 0.0032
In vitro
  recovery at 2 h, 2 μM: < 50%
